Experimental data taken from patent publication EP2029580B1, “NOVEL INDOL-PYRROL DERIVATIVES FOR THE TREATMENT OF PROLIFERATIVE AND INFLAMMATORY DISEASES” (ScheBo Biotech AG, priority 2006, dated 2007).
Like-named read-outs stand apart in the source and are kept apart here.

What was measured:
MCF-7 = experiment: XTT cell proliferation inhibition, MCF-7; assay type: cell-based, humane
Excerpt: (§1) Die Substanzen der Beispiele 2.1 bis 2.3 wurden an verschiedenen Zelllinien in An- und Abwesenheit von Pyruvat im Nährmedium auf ihre proliferationshemmende Wirkung getestet. Die Substanzen wurden jeweils in DMSO gelöst. Anschließend wurde der Wirkstoff in acht Konzentrationsintervallen getestet. Der Berechnung der IC50-Werte lagen in jeder Konzentration acht Einzelwertbestimmungen zugrunde. Der IC50-Wert gibt die Wirkstoffkonzentration an, bei der im Vergleich zur Kontrollgruppe, die ausschließlich mit dem Lösungsmittel DMSO behandelt wurde, eine 50%ige Hemmung der Zellproliferation vorlag.

HT-29 = experiment: XTT cell proliferation inhibition, HT-29; assay type: cell-based, humane; details: read-out: IC50 ohne Pyrovat
Excerpt: as §1

BxPC-3 = experiment: XTT cell proliferation inhibition, BxPC-3; assay type: cell-based, humane
Excerpt: as §1

MDA-MB-453 = experiment: XTT cell proliferation inhibition, MDA-MB-453; assay type: cell-based, humane; details: Homo sapiens
Excerpt: as §1

NK1 = experiment: XTT cell proliferation inhibition, NK1; assay type: cell-based, Ratten; details: NK1, without pyruvate in the medium; read-out: IC50 ohne Pyrovat
Excerpt: as §1

Wi-38 = experiment: XTT cell proliferation inhibition, Wi-38; assay type: cell-based, humane; details: Homo sapiens; Wi-38, with pyruvate in the medium; read-out: IC50 (XTT) mit Pyrovat
Excerpt: as §1

KBV-600 = experiment: XTT cell proliferation inhibition, KBV-600; assay type: cell-based; details: KBV-600 (cultured with 600 ng/ml Vinblastin), without pyruvate in the medium; read-out: IC50 ohne Pyrovat
Excerpt: as §1

[1] = tested on: 25 verschiedenen Tumormodellen; experiment: Colony assay in soft agar, 25 tumour models; assay type: cell-based, menschlichen
Excerpt: (§2) Im Kolonie-Assay werden Tumorstammzellen von verschiedenen menschlichen Tumorentitäten in Softagar kultiviert und die Ausbildung von Tumorkolonien in An- und Abwesenheiten von der erfindungsgemäßen Substanz (Beispiel 2.1, ggf. als Malat der Beispiel 2.2 oder 2.3) ausgezählt. Insgesamt wurde die Substanz an 25 verschiedenen Tumormodellen getestet. Zu den Tumormodellen gehörten Colon-, Pankreas- und Magenkarzinome, kleinzellige und nicht kleinzellige Lungentumore, Brust-, Ovar- und Nierenkarzinome sowie Melanome. Das breite Spektrum von verschiedenen Tumorentitäten sowie die große Anzahl von Modellen ermöglichen nach der Zellkultur eine erneute Prüfung der Wirksamkeit der Substanz und geben erste Hinweise darauf, ob die Substanz Wirkungsselektivität für bestimmte Tumorentitäten besitzt.
(§3) Die Ergebnisse sind in der Figur 1 dargestellt (graphische Analyse der Mittelwerte für die Substanz basierend auf den IC70-Werten). Die Balken stellen die IC70-Konzentrationen im Verhältnis zum Mittelwerte aller IC70-Werte dar. Bei Balken nach links ist der IC70-Wert für das betreffende Modell niedriger als der Mittelwert der IC70-Werte aller Modelle, d.h. diese Modelle sind sensitiver im Vergleich zum Durchschnitt aller Modelle. Balken nach rechts bedeuten höhere IC70-Werte als der Durchschnitt der Modelle und damit eine geringere Sensitivität.

[2] = tested on: nicht kleinzelliges Lungentumormodell; experiment: Colony assay in soft agar, non-small-cell lung tumour model; assay type: cell-based, menschlichen; details: most sensitive model
Excerpt: as §2, §3

Brusttumormodell = experiment: Colony assay in soft agar, breast tumour model; assay type: cell-based, menschlichen; details: least sensitive model
Excerpt: as §2, §3

[3] = tested on: Ovarialkarzinom (OVXF 550); experiment: Colony assay in soft agar, ovarian carcinoma OVXF 550; assay type: cell-based, menschlichen
Excerpt: as §2
Im gleichen Kolonie-Assay und unter gleichen experimentellen Bedingungen wurden für die erfindungsgemäße Substanz (5-[5-Fluoro-2-oxo-1,2-dihydro-indol-(3Z)-ylidenemythyl]-2,4-dimethyl-1H-pyrrole-3-carboxylic acid (2-diethylamino-ethoxy)-amide (vorzugsweise das Salz der Äpfelsäure, Malate) folgende Werte gefunden: OVXF 550: IC50 = […], IC70 = 21,6 µM

verschiedenen Zelllinien = experiment: Cell culture proliferation inhibition, summary over all cell lines; assay type: cell-based; details: span over the cell lines of Table 1; read-out: IC50-Werte
Excerpt: as §1

CCN(CC)CCONC(=O)c1c(C)[nH]c(/C=C2\C(=O)Nc3ccc(F)cc32)c1C [Beispiel 2.1, 5-[5-Fluoro-2-oxo-1,2-dihydro-indol-(3Z)-ylidenemethyl]-2,4-dimethyl-1H-pyrrole-3-carboxylic acid (2-diethylamino-ethoxy)-amide]
IC50 (MCF-7; Homo sapiens, MCF7, MCF-7, with pyruvate in the medium, read-out: IC50 (XTT) mit Pyrovat): 11 µM | IC50 (MCF-7; Homo sapiens, MCF7, MCF-7, without pyruvate in the medium, read-out: IC50 ohne Pyrovat): 8 µM | IC50 (HT-29; Homo sapiens, HT-29, without pyruvate in the medium): 3.5 µM | IC50 (BxPC-3; Homo sapiens, BxPC-3, with pyruvate in the medium, read-out: IC50 (XTT) mit Pyrovat): 1.3 µM | IC50 (BxPC-3; Homo sapiens, BxPC-3, without pyruvate in the medium, read-out: IC50 ohne Pyrovat): 2 µM | IC50 (MDA-MB-453; MDA-MB-453, with pyruvate in the medium, read-out: IC50 (XTT) mit Pyrovat): 11 µM | IC50 (MDA-MB-453; MDA-MB-453, without pyruvate in the medium, read-out: IC50 ohne Pyrovat): 7 µM | IC50 (NK1): 2 µM | IC50 (Wi-38): 11 µM | IC50 (KBV-600): 5 µM | Hemmung der Koloniebildung ([1]; all 25 models): Dosis-abhängigen Hemmung der Koloniebildung | mittlere IC70-Wert ([1]; mean over all 25 tumour models): 20 µM | IC50 ([1]; mean over all 25 tumour models, read-out: mittlere IC50-Wert): 15 µM | IC50 [2]: 4 µM | IC70-Wert [2]: 6 µM | IC70-Wert (Brusttumormodell): 40 µM | IC50 (Brusttumormodell; read-out: höchste IC50-Wert): 30 µM | IC70 [3]: 21,6 µM | IC50 ([3]; substance preferably as malate salt): 16.7 µM

CCN(CC)CCONC(=O)c1c(C)[nH]c(/C=C2\C(=O)Nc3ccc(F)cc32)c1C [SO 272]
IC50 (verschiedenen Zelllinien): 1 to 11 µM

CCN(CC)CCONC(=O)c1c(C)[nH]c(/C=C2\C(=O)Nc3ccc(F)cc32)c1C [Beispiel 2.3, N-[2-(diethylamino)ethoxy]-5-[(Z)-(5-Fluoro-1,2-dihydro-2-oxo-3H-indol-3-ylidene)methyl]-2,4-dimethyl-1H-pyrrole-3-carboxamide, (2S)-hydroxybutanedionate (1:1)]
IC50 (MCF-7; MCF-7, with pyruvate in the medium, read-out: IC50 (XTT) mit Pyrovat): 9 µM | IC50 (MCF-7; MCF-7, without pyruvate in the medium, read-out: IC50 ohne Pyrovat): 10 µM | IC50 (HT-29; HT-29, without pyruvate in the medium): 3 µM | IC50 (NK1): 4 µM

CCN(CC)CCONC(=O)c1c(C)[nH]c(/C=C2\C(=O)Nc3ccc(F)cc32)c1C [Beispiel 2.2, N-[2-(diethylamino)ethoxy]-5-[(Z)-(5-Fluoro-1,2-dihydro-2-oxo-3H-indol-3-ylidene)methyl]-2,4-dimethyl-1H-pyrrole-3-carboxamide, (2S)-hydroxybutanedionate (1:0,5)]
IC50 (HT-29; Homo sapiens, HT-29, HT-29, without pyruvate in the medium): 3 µM | IC50 (BxPC-3; BxPC-3, with pyruvate in the medium, read-out: IC50 (XTT) mit Pyrovat): 2 µM | IC50 (BxPC-3; BxPC-3, without pyruvate in the medium, read-out: IC50 ohne Pyrovat): 2 µM | IC50 (MDA-MB-453; MDA-MB-453, MDA-MB-453, with pyruvate in the medium, read-out: IC50 (XTT) mit Pyrovat): 8 µM

CCN(CC)CCNC(=O)c1c(C)[nH]c(/C=C2\C(=O)Nc3ccc(F)cc32)c1C [SU11248, 5-[5-Fluoro-2-oxo-1,2-dihydroindol-(3Z)-ylidenemethyl]-2,4-dimethyl-1H-pyrrole-3-carboxylic Acid (2-Diethylaminoethyl)amide, reference compound]
IC50 [3]: 18 µM | IC70 [3]: 26,7 µM
